Measured values taken from patent US20230103444A1 (The Regents of the University of Colorado, a Body Corporate, priority 2020, published 2023).
Where two headings read alike, the source gives them in different places.

What was measured:
[1] = Human microsomal stability; assay type: in vitro ADME; conditions: human microsomes, Table 6, read-out: Microsomal stability Human t1/2
HCT116 tumor organoids = experiment: Tumor organoid cytotoxicity (CellTiter-Glo 3D); assay type: cell-based, human; conditions: Homo sapiens
Experimental: (§1) Cell based cytotoxicity dose response and combination studies. […] Plates were then incubated for 3 days before treatment.
Cell Line Tumor Organoid Culture.
Tumor Organoid Cytotoxicity.

[2] = Mouse liver microsome stability; conditions: CD-1, mouse
Experimental: Microsome stability. CD-1 mouse microsomes were commercially purchased and the reactions were performed as previously described. […] The master mix was pre-incubated at 37° C. for 5 min, then 1 mM NADPH was added to start the microsomal activity reaction and maintained at 37° C. throughout the time course. Reactions were stopped at 0, 5, 15, 30, 45, and 60 min by adding 200 μL acetonitrile and analyzed by mass spectrometry. The appropriate microsome controls were also performed in the same reaction conditions.

SW620 tumor organoids [3] = experiment: Tumor organoid cytotoxicity (CellTiter-Glo 3D); conditions: Homo sapiens
cat-CHD1L ATPase = biological target: T1, cat-CHD1L ATPase (Homo sapiens, UniProt Q86WJ1); experiment: CHD1L ATPase assay with recombinant catalytic domain (cat-CHD1L); assay type: biochemical; conditions: Table 6; read-out: cat-CHD1L inhibition IC50
T1 construct: inferred from Ni-NTA / imidazole purification; made in house; host or cells: E. coli Rosetta 2 (DE3) pLysS; constructs were a gift from Helena Berglund, Karolinska Institute
T1 sequence (Q86WJ1 16-611 limits assumed): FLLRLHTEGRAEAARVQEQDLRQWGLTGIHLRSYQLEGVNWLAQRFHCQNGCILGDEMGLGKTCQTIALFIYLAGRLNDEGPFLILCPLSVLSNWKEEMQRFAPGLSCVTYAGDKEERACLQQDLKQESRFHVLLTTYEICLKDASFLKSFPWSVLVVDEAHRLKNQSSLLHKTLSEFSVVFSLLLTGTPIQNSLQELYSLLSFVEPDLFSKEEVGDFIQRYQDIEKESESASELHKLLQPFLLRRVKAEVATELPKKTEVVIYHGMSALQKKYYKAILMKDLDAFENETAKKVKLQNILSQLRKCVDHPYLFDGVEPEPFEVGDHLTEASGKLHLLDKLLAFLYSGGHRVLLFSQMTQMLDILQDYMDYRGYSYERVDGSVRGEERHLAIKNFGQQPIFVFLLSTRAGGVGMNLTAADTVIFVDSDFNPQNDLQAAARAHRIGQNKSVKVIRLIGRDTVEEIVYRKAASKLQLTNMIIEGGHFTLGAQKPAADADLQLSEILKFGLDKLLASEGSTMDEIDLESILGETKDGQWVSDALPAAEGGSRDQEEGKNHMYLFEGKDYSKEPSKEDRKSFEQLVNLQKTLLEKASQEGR
Experimental: All reactions were carried out using low volume non-binding surface 384-well plates (Corning Inc., Corning N.Y.). cat-CHD1L or fl-CHD1L (100 nM) and 200 nM c-Myc DNA or mononucelosome (Active Motif, Carlsbad, Calif.) were added to a buffer containing 50 mM Tris pH 7.5, 50 mM NaCl, 1 mM DTT, 5% glycerol, and the reaction was initiated by the addition of 10 μM ATP (New England Biolabs, Ipswich, Mass.) to a total volume of 10 μL and incubated at 37° C. for 1 h. ATPase activity was assayed by adding 500 nM of Phosphate Sensor (Life Technologies, Carlsbad, Calif.), containing labeled phosphate-binding protein, specifically labeled with the fluorophore MDCC, and measuring excitation (430 nm) and emission (450 nm) immediately on an EnVision® plate reader (PerkinElmer, Hopkinton, Mass.). An inorganic phosphate standard curve was used to convert the fluorescence to [Pi], and enzyme kinetics were determined using Prism8 (GraphPad Software, San Diego, Calif.).
Assay composition was the same as described above using cat-CHD1L, except that the reaction mixture volume was modified to accommodate addition of drug or DMSO. Using a Janus® liquid handler (PerkinElmer, Hopkinton, Mass.), a selected amount of compounds dissolved in 100% DMSO were mixed with 50 mM Tris pH 7.5, 50 mM NaCl, 1 mM DTT, 5% glycerol buffer to 200 μM in 10% DMSO. […] The negative control used was 1% DMSO and 10 mM EDTA was used as a positive control. Reactions were initiated with the addition of 10 μM ATP and incubated at 37° C. for 1 h. ATPase activity was measured by fluorescence by adding 500 nM Phosphate Sensor. cat-CHD1L was screened against a 20,000-compound diversity set from Life Chemicals (Woodbridge, Conn.) and a Kinase Inhibitor library from Selleck Chemicals (Houston, Tex.).
CHD1L Enzyme ATPase Assay. […] All reactions were carried out using low volume nonbinding surface 384-well plates (Corning Inc., Corning, N.Y.). […] The reaction was initiated by the addition of 10 μmol/L ATP (New England Biolabs, Ipswich, Mass.) to a total volume of 10 μL and incubated at 37° C. for 1 hour. ATPase activity was measured by adding 500 nmol/L of Phosphate Sensor (ThermoFisher, Waltham, Mass.) measuring excitation (430 nm) and emission (450 nm) immediately on an Envision plate reader (PerkinElmer, Waltham, Mass.). Background signal was determined by using all assay components excluding the enzyme.

SW620 tumor organoids [4] = experiment: Synergy studies with SN38 (LOEWE synergy scores); assay type: cell-based, human; conditions: killing SW620 tumor organoids
Experimental: as §1
(e.g., synergy score 20 corresponds to 20% of response beyond expectation). According to our experience, the synergy scores near 0 gives limited confidence on synergy or antagonism.
When the synergy score is: • Less than −10: the interaction between two drugs is likely to be antagonism; • From −10 to 10: the interaction between two drugs is likely to be additivity; • Larger than 10: the interaction between two drugs is likely to be synergy.

[5] = HCT-116, 72 h, Table 6, read-out: 3 D Cytotoxicity 72 hr IC50 (μM) HCT116
[6] = HCT-116, single agent, Table 4A, read-out: Tumor Organoid Cytotoxicity IC50 (μM) HCT116
[7] = liver microsomes, pH 7.4, Microsomal stability Mouse t1/2 (min), Table 6
[8] = SW-620, 72 h, read-out: 3 D Cytotoxicity 72 hr IC50 (μM) SW620
[9] = SW-620, read-out: IC50 of cytotoxicity in SW620 cells
[10] = SW-620, read-out: Tumor Organoid Cytotoxicity IC50 (μM) SW620
[11] = liver microsomes, pH 7.4, In Vitro Half-Life (Min), second series, different liver microsome preparation

Structure (SMILES)	IC50 (cat-CHD1L ATPase) [µM]	half-life [1] [min]	IC50 (HCT116 tumor organoids; [5]) [µM]	IC50 (HCT116 tumor organoids; [6]) [µM]	half-life at 10 μM [2, 7] [min]	IC50 (SW620 tumor organoids [3]; [8]) [µM]	IC50 (SW620 tumor organoids [3]; [9]) [µM]	IC50 (SW620 tumor organoids [3]; [10]) [µM]	half-life at 10 μM [2, 11] [min]	synergism with irinotecan (and SN38), in words (SW620 tumor organoids [4])	half-life at 10 μM ([2]; microsomes, pH 7.4) [min]
Cc1cc(Nc2ccc(NC(=O)Cc3c[nH]c4cc(Cl)ccc34)cc2)nc(N2CCCC2)n1 [Compound 6.18, 2-(6-chloro-1H-indol-3-yl)-N-(4-((6-methyl-2-(pyrrolidin-1-yl)pyrimidin-4-yl)amino)phenyl)acetamide]	–	88.1	3	2.95	141	1.5	< 10	1.4	–	–	–
Cc1cc(Oc2ccc(NC(=O)Cc3cccs3)cc2)nc(Cl)n1 [Compound 6.12, N-(4-((2-chloro-6-methylpyrimidin-4-yl)oxy)phenyl)-2-(thiophen-2-yl)acetamide]	–	–	> 40	> 30	–	> 20	–	> 20	9.3	–	–
COc1cnc(N2CCCC2)nc1Nc1ccc(NC(=O)Cc2cccs2)cc1 [Compound 6.10, N-(4-((5-methoxy-2-(pyrrolidin-1-yl)pyrimidin-4-yl)amino)phenyl)-2-(thiophen-2-yl)-acetamide]	–	–	> 40	> 30	–	24.1	–	22.6	16.7	–	–
Cc1cc(Nc2ccc(NC(=O)c3c[nH]c4ncccc34)cc2)nc(N2CCCC2)n1 [Compound 6.9, N-(4-((6-methyl-2-(pyrrolidin-1-yl)pyrimidin-4-yl)amino)phenyl)-1H-pyrrolo[2,3-b]pyridine-3-carboxamide]	–	–	19.7	19.6	–	8.3	–	8.1	295	synergism	–
O=C(Cc1cccs1)Nc1ccc(Nc2nc(N3CCCC3)ncc2F)cc1 [Compound 6.2, N-(4-((5-fluoro-2-(pyrrolidin-1-yl)pyrimidin-4-yl)amino)phenyl)-2-(thiophen-2-yl)acetamide]	–	–	–	–	–	> 40	–	> 40	26.1	–	–
Cc1nc(N2CCCC2)nc(Nc2ccc(N(C)C(=O)Cc3cccs3)cc2)c1F [Compound 6.4]	–	–	> 40	> 30	–	> 40	–	28.4	–	–	31.4
Cc1cc(Nc2ccc(NC(=O)Cc3c(C)[nH]c4ccccc34)cc2)nc(N2CCCC2)n1 [Compound 6.21, 2-(2-methyl-1H-indol-3-yl)-N-(4-((6-methyl-2-(pyrrolidin-1-yl)pyrimidin-4-yl)amino)phenyl)acetamide]	–	43.8	–	–	47.8	1.7	< 10	1.6	–	–	–
Cc1cc(Oc2ccc(NC(=O)c3c[nH]c4ccccc34)cc2)nc(N2CCCC2)n1 [Compound 6.14, N-(4-((6-methyl-2-(pyrrolidin-1-yl)pyrimidin-4-yl)oxy)phenyl)-1H-indole-3-carboxamide]	–	–	15.3	15.3	–	11.1	–	10.4	70.4	–	–
Cc1cc(Oc2ccc(NC(=O)Cc3cccs3)cc2)nc(N2CCCC2)n1 [Compound 6.13, N-(4-((6-methyl-2-(pyrrolidin-1-yl)pyrimidin-4-yl)oxy)phenyl)-2-(thiophen-2-yl)acetamide]	–	–	> 40	> 30	–	> 20	–	> 20	43.1	–	–
Cc1cc(Nc2ccc(NC(=O)Cc3cccs3)cc2)nc(N2CCOCC2)n1 [Compound 6.15, N-(4-((6-methyl-2-morpholinopyrimidin-4-yl)amino)phenyl)-2-(thiophen-2-yl)acetamide]	–	–	19.7	19.7	–	13.1	–	16.4	22.7	–	–
Cc1nc(N2CCCC2)nc(Nc2ccc(NC(=O)Cc3cccs3)cc2)c1F [Compound 6.1, N-(4-((5-fluoro-6-methyl-2-(pyrrolidin-1-yl)pyrimidin-4-yl)amino)phenyl)-2-(thiophen-2-yl)acetamide]	–	–	> 40	> 30	–	> 40	–	> 40	34.9	–	–
Cc1cc(NCc2ccc(NC(=O)Cc3cc(Br)cs3)cc2)n2nc(N)nc2n1 [Compound 6.54]	3.5	–	> 40	–	–	> 40	–	–	–	–	–
Cc1cc(NCc2ccc(NC(=O)Cc3cc(Br)cs3)cc2)nc(N2CCCCC2)n1 [Compound 6.46]	0.7	–	8.3	–	–	12.5	–	–	–	–	–
Cc1cc(Nc2ccc(NC(=O)Cc3cc(Br)cs3)cc2)n2nc(N3CCCC3)nc2n1 [Compound 6.55]	18.7	–	> 40	–	–	> 40	–	–	–	–	–

Continued, in another order:

IC50 (cat-CHD1L ATPase) [µM]	Structure (SMILES)	half-life [1] [min]	IC50 (HCT116 tumor organoids; [5]) [µM]	IC50 (HCT116 tumor organoids; [6]) [µM]	half-life at 10 μM [2, 7] [min]	IC50 (SW620 tumor organoids [3]; [8]) [µM]	IC50 (SW620 tumor organoids [3]; [9]) [µM]	IC50 (SW620 tumor organoids [3]; [10]) [µM]	half-life at 10 μM [2, 11] [min]	synergism with irinotecan (and SN38), in words (SW620 tumor organoids [4])	half-life at 10 μM ([2]; microsomes, pH 7.4) [min]
> 20	Cc1cc(Nc2ccc(NC(=O)Cn3ccnc3)cc2)nc(N2CCN(C)CC2)n1 [Compound 6.52]	–	> 20	–	–	> 20	–	–	–	–	–
1	O=C(Cc1cc(Br)cs1)Nc1ccc(Nc2cc(C(F)(F)F)nc(N3CCCC3)n2)cc1 [Compound 6.59]	–	11.9	–	–	14.8	–	–	–	–	–
11.4	Cc1cc(Nc2ccc(NC(=O)Cc3cc(Br)cs3)cc2)nc(N2CCNCC2)n1 [Compound 6.40]	–	4.8	–	–	10.5	–	–	–	–	–
6	Cc1cc(Nc2ccc(NC(=O)Cn3ccnc3)cc2)nc(N2CCCCC2)n1 [Compound 6.51]	–	15.1	–	–	40.7	–	–	–	–	–
2.5	Cc1cc(NCc2ccc(NC(=O)Cc3cc(Br)cs3)cc2)n2nc(N3CCCC3)nc2n1 [Compound 6.56]	–	> 40	–	–	> 40	–	–	–	–	–
4.5	Cc1cc(Nc2ccc(NC(=O)Cc3cc(Br)cs3)cc2)nc(N2CCN(C)CC2)n1 [Compound 6.48]	–	7.6	–	–	21.8	–	–	–	–	–
> 20	Cc1cc(Nc2ccc(NC(=O)Cc3cc(Br)cs3)cc2)n2nc(N)nc2n1 [Compound 6.53]	–	> 40	–	–	> 40	–	–	–	–	–
0.8	Cc1cc(N2CCCCC2)nc(NCc2ccc(NC(=O)Cc3cc(Br)cs3)cc2)n1 [Compound 6.47]	–	9.3	–	–	13.8	–	–	–	–	–
1.4	Cc1cc(N2CCN(C)CC2)nc(NCc2ccc(NC(=O)Cc3cc(Br)cs3)cc2)n1 [Compound 6.45]	–	10.6	–	–	27.2	–	–	–	–	–
